Data published in ChEMBL document CHEMBL5370583, “Cytotoxic Ergosteroids from a Strain of the Fungus Talaromyces adpressus” (J Nat Prod, 2023).
Active and inactive are the calls of the source. The calls are words filed in the database; no cut-off is given here.

Experiments:
HepG2 = experiment: Cytotoxicity against human HepG2 cells assessed as cell growth inhibition by MTT assay; format: functional, cell-based
SU-DHL-2 [1] = experiment: Cytotoxicity against human SUDHL2 cells assessed as cell growth inhibition by MTT assay; format: functional, cell-based
[2] = Immunosuppressive activity in C57BL/6J mouse B-lymphocyte assessed as inhibition of LPS-induced cell proliferation at 0.3125 to 40 uM incubated for 72 hrs by flow cytometry analysis; format: functional, cell-based; conditions: dose 0.3125-40 µM
A549 = experiment: Cytotoxicity against human A549 cells assessed as cell growth inhibition by MTT assay; format: functional, cell-based
[3] = Cytotoxicity against human […] cells assessed as cell growth inhibition by MTT assay; format: functional, cell-based
HL-60 = experiment: Cytotoxicity against human HL-60 cells assessed as cell growth inhibition by MTT assay; format: functional, cell-based
B-cell line = experiment: Immunosuppressive activity in C57BL/6J mouse B-lymphocyte assessed as inhibition of LPS-induced cell proliferation incubated for 72 hrs by flow cytometry analysis; format: functional, cell-based
SU-DHL-2 [4] = experiment: Induction of apoptosis in human SUDHL2 cells assessed as early apoptotic cells at 10 uM measured by Annexin V-FITC/PI staining based flow cytometry assay (reference value: 4.52%); format: functional
SU-DHL-2 [5] = experiment: Induction of apoptosis in human SUDHL2 cells assessed as late apoptotic cells at 10 uM measured by Annexin V-FITC/PI staining based flow cytometry assay (reference value: 3.10%); format: functional
SU-DHL-2 [6] = experiment: Induction of apoptosis in human SUDHL2 cells assessed as viable cells at 10 uM measured by Annexin V-FITC/PI staining based flow cytometry assay (reference value: 92.2%); format: functional; conditions: read-out: Activity
SU-DHL-2 [7] = experiment: Induction of apoptosis in human SUDHL2 cells assessed as viable cells at 2 uM measured by Annexin V-FITC/PI staining based flow cytometry assay (reference value: 92.2%); format: functional; conditions: read-out: Activity
SU-DHL-2 [8] = experiment: Induction of apoptosis in human SUDHL2 cells assessed as necrotic cells at 10 uM measured by Annexin V-FITC/PI staining based flow cytometry assay (reference value: 0.23%); format: functional
SU-DHL-2 [9] = experiment: Induction of apoptosis in human SUDHL2 cells assessed as early apoptotic cells at 2 uM measured by Annexin V-FITC/PI staining based flow cytometry assay (reference value: 4.52%); format: functional
SU-DHL-2 [10] = experiment: Induction of apoptosis in human SUDHL2 cells assessed as necrotic cells at 2 uM measured by Annexin V-FITC/PI staining based flow cytometry assay (reference value: 0.23%); format: functional
SU-DHL-2 [11] = experiment: Induction of apoptosis in human SUDHL2 cells assessed as late apoptotic cells at 2 uM measured by Annexin V-FITC/PI staining based flow cytometry assay (reference value: 3.10%); format: functional

COC1(OC)CC[C@@]2(C)[C@H](C1)C(=O)C=C1[C@@H]2[C@H](OC(C)=O)C[C@]2(C)[C@@H]([C@H](C)/C=C/C(C)C(C)(C)O)CC[C@@H]12 (single isomer, unassigned)
IC50 (HepG2): 29 µM
IC50 (SU-DHL-2 [1]): 25 µM
inhibition [2]: inactive
IC50 (A549): 13 µM
IC50 [3]: 11 µM
IC50 (HL-60): 8.3 µM

COC(=O)[C@@]12CC[C@@]3(C)[C@]1(O)C(=O)C=C1[C@]4(O)CC[C@H]([C@H](C)/C=C/[C@H](C)C(C)C)[C@@]4(C)CC[C@@]13OO2
IC50 (HepG2): > 40 µM
IC50 (SU-DHL-2 [1]): > 40 µM
inhibition [2]: inactive
IC50 (A549): > 40 µM
IC50 [3]: > 40 µM
IC50 (HL-60): > 40 µM

CC(C)[C@@H](C)/C=C/[C@@H](C)[C@H]1CC[C@]2(O)C3=CC(=O)C4=CC(=O)CC[C@]4(C)[C@@]3(O)CC[C@]12C
IC50 (HepG2): 19 µM
IC50 (SU-DHL-2 [1]): 7.5 µM
inhibition [2]: inactive
IC50 (A549): 31 µM
IC50 [3]: 30 µM
IC50 (HL-60): 8.8 µM

CC(C)[C@@H](C)/C=C/[C@@H](C)[C@H]1CC[C@]2(O)C3=CC(=O)[C@@H]4[C@@]5(O)CC[C@]4(C)[C@]3(CC[C@]12C)OC5=O
inhibition [2]: inactive

CC(C)[C@@H](C)/C=C/[C@@H](C)[C@H]1CCC(=O)[C@]23CC(=O)C4=CC(=O)CC[C@]4(C)[C@H]2CC[C@]13C [DANKASTERONE A]
IC50 (HepG2): 12 µM
IC50 (SU-DHL-2 [1]): 6.6 µM
inhibition [2]: inactive
IC50 (A549): 25 µM
IC50 [3]: > 40 µM
IC50 (HL-60): 3.8 µM

CC(C)[C@@H](C)/C=C/[C@@H](C)[C@H]1C[C@@H](O)C2=C3C=CC4=CC(=O)CC[C@]4(C)[C@@]3(O)CC[C@@]21C
IC50 (HepG2): > 40 µM
IC50 (SU-DHL-2 [1]): > 40 µM
IC50 (A549): > 40 µM
IC50 [3]: > 40 µM
IC50 (B-cell line): 8.6 µM
IC50 (HL-60): > 40 µM

CO[C@@H]1C=C2[C@@H]3CC[C@H]([C@H](C)/C=C/[C@H](C)C(C)C)[C@@]3(C)C[C@H]3O[C@@]23[C@@]2(C)CC[C@H](O)C[C@]12O
Activity (SU-DHL-2 [4]): 15%
Activity (SU-DHL-2 [5]): 54%
viability at 10 µM (SU-DHL-2 [6]): 26.9%
IC50 (HepG2): 24 µM
IC50 (SU-DHL-2 [1]): 0.4 µM
viability at 2 µM (SU-DHL-2 [7]): 78.2%
Activity (SU-DHL-2 [8]): 4.02%
inhibition [2]: inactive
Activity (SU-DHL-2 [9]): 6.67%
IC50 (A549): 18 µM
Activity (SU-DHL-2 [10]): 0.87%
IC50 [3]: 14 µM
IC50 (HL-60): 6.1 µM
Activity (SU-DHL-2 [11]): 14.3%

CC(C)[C@@H](C)/C=C/[C@@H](C)[C@H]1CC(=O)C2=C3[C@H](O)[C@H]4O[C@]45C[C@@H](O)CC[C@]5(C)[C@@]3(O)CC[C@@]21C
inhibition [2]: inactive

CO[C@@H]1C=C2C=CC3=C4C(=O)C[C@H]([C@H](C)/C=C/[C@H](C)C(C)C)[C@@]4(C)CC[C@]3(O)[C@@]2(C)CC1
IC50 (HepG2): > 40 µM
IC50 (SU-DHL-2 [1]): > 40 µM
inhibition [2]: inactive
IC50 (A549): > 40 µM
IC50 [3]: > 40 µM
IC50 (HL-60): 25 µM

COC(=O)[C@@]12CC[C@@]3(C)[C@]1(O)C(=O)C=C1[C@@]4(O)CC[C@H]([C@H](C)/C=C/[C@H](C)C(C)C)[C@@]4(C)CC[C@@]13OO2
IC50 (HepG2): > 40 µM
IC50 (SU-DHL-2 [1]): > 40 µM
inhibition [2]: inactive
IC50 (A549): > 40 µM
IC50 [3]: > 40 µM
IC50 (HL-60): 32 µM

C=C(CC[C@@H](C(=O)O)[C@H]1CC[C@H]2C3=C[C@@H](O)[C@@]45O[C@@H]4C(=O)C=C[C@]5(C)[C@H]3CC[C@]12C)C(C)C
IC50 (HepG2): 24 µM
IC50 (SU-DHL-2 [1]): 6.9 µM
inhibition [2]: inactive
IC50 (A549): > 40 µM
IC50 [3]: 13 µM
IC50 (HL-60): 7.3 µM

CC(C)[C@@H](C)/C=C/[C@@H](C)[C@H]1CC[C@@]2(O)C3=CC(=O)C4=CC(=O)CC[C@]4(C)[C@@]3(O)CC[C@]12C
inhibition [2]: inactive

C=C(CC[C@@H](C(=O)O)[C@H]1CC[C@H]2C3=C[C@@H](O)[C@@]45O[C@@H]4[C@H](O)[C@@H]4O[C@@H]4[C@]5(C)[C@H]3CC[C@]12C)C(C)C
IC50 (HepG2): > 40 µM
IC50 (SU-DHL-2 [1]): > 40 µM
inhibition [2]: inactive
IC50 (A549): > 40 µM
IC50 [3]: > 40 µM
IC50 (HL-60): > 40 µM

COc1cc([C@@H]2c3cc4c(cc3[C@@H](O[C@@H]3O[C@@H]5CO[C@@H](C)O[C@H]5[C@H](O)[C@H]3O)[C@H]3COC(=O)[C@H]23)OCO4)cc(OC)c1O [ETOPOSIDE]
IC50 (HepG2): 21 µM
IC50 (SU-DHL-2 [1]): 2.1 µM
IC50 (A549): 10 µM
IC50 [3]: 52 µM
IC50 (HL-60): 2.1 µM

CC(C)[C@@H](C)/C=C/[C@@H](C)[C@H]1CCC(=O)[C@]23CC(=O)[C@@H]4CC(=O)CC[C@]4(C)[C@H]2CC[C@]13C
inhibition [2]: inactive

CC(C)[C@@H](C)/C=C/[C@@H](C)[C@H]1CC(=O)C2=C3[C@H](O)[C@H]4O[C@]45C[C@@H](O)CC[C@]5(C)[C@H]3CC[C@@]21C
inhibition [2]: inactive

CC(=O)O[C@@H]1C[C@]2(C)[C@@H]([C@H](C)/C=C/[C@H](C)C(C)(C)O)CC[C@H]2C2=CC(=O)[C@H]3CC(=O)CC[C@]3(C)[C@H]21
IC50 (HepG2): 25 µM
IC50 (SU-DHL-2 [1]): 19 µM
inhibition [2]: inactive
IC50 (A549): 22 µM
IC50 [3]: 9.2 µM
IC50 (HL-60): 11 µM
